Measurements from US20250236608A1, “EGFR INHIBITORS” (Blueprint Medicines Corporation, priority 2022, published 2025).
Counter-ions that a name gives are not always drawn.

Key:
EGFR L858R = EGFR L858R (Homo sapiens (Human), UniProt P00533, L858R); experiment: Biochemical EGFR inhibition assay, EGFR L858R; conditions: Caliper mobility shift; 1.0 mM ATP or ATP Km; read-out: Enz EGFR_L858R IC50
Experimental: (§1) Reactions proceeded until between 10% to 20% total peptides were phosphorylated at room temperature (25° C.) and were terminated with 35 mM 2,2′,2″,2″-(ethane-1,2-diyldinitrilo)tetraacetic acid (EDTA). Product was detected using the Caliper mobility shift detection method where the phosphorylated peptide (product) and substrate were electrophoretically separated and measured. Percent activity was plotted against log concentration of compound and points to generate an apparent IC50.

EGFR (d746-750) = EGFR (d746-750) (Homo sapiens (Human), UniProt P00533, DEL746-750); experiment: Biochemical EGFR inhibition assay, EGFR (d746-750); conditions: Caliper mobility shift; 1.0 mM ATP or ATP Km; read-out: Enz EGFR_Exon19-del746-750 IC50
Experimental: as §1

[1] = target: pEGFR (Tyr1068) in PC-9 cells (Ex19Del) (Homo sapiens (Human), UniProt P00533, DEL746-750); experiment: PC-9 pEGFR AlphaLISA assay; assay type: cell-based; conditions: 4 hours incubation, p-EGFR (Tyr1068) AlphaLISA, read-out: Ext pEGFR_PC-9 Ex19Del IC50
Experimental: PC-9/A431 pEGFR AlphaLISA Assays
Inhibitory effects of compounds were evaluated in cellular assays that measure level of intracellular phosphorylation of EGFR in PC-9 (ECACC, #90071810, Milipore/Sigma) and A431 cell lines (ATCC, CRL-1555) using AlphaLISA sureFire ultra p-EGFR (Tyr1068) assay kit (PerkinElmer, ALSU-PEGFR-A50K). PC-9 cells were seeded at 3.125×10^5 cells/ml in 40 μL phenol-free DMEM supplemented with 10% FBS per well of a 384 well plate (Corning, 3764), while A431 were seeded at 3.125×10^5 cells/ml in 40 μL in phenol-free DMEM with 0.5% FBS. Cells were allowed to adhere overnight at 37° C./5% CO2. On the next day, compounds were transferred at 4-fold, 10-point serial dilution from compound source plate to cell plates using liquid handler Echo550 and were incubated at 37° C./5% CO2 for 4 hours. A431 cells were stimulated prior harvesting for 10 min with EGF at final concentration of 30 ng/ml in the incubator. Medium was removed from the plates and cells were lysed with 10 μL of 1× AlphaLISA lysis buffer (supplemented with 1× protease/phosphatase inhibitor cocktail) followed by shaking at 600 rpm for 30 minutes at room temperature. Lysates were transferred to Optiplate (Apricot designs) and 5 μl of 1× acceptor bead mix (prepared just before use) was added to each well followed by incubation at room temperature for 1.5-2 h in dark. Then 5 μL of freshly-made donor bead mix is added to each well under subdued lighting or green filters, was mixed well on the shaker and the plate was sealed and left for an overnight incubation at room temperature in dark. On the next day, the plate was read the Envision using standard AlphaLisa settings. Percent of pEGFR inhibition was plotted against log concentration of compounds to generate IC50 values.

Compound | IC50 (EGFR L858R) [nM] | IC50 (EGFR (d746-750)) [nM] | IC50 [1] [nM]
COc1cc2ncnc(-c3cn(C)nc3-c3ccccc3)c2nc1OC(=O)N1CCN(C)C[C@@H]1C [Example 55, 7-methoxy-4-(1-methyl-3-phenyl-1H-pyrazol-4-yl)pyrido[3,2-d]pyrimidin-6-yl (S)-2,4-dimethylpiperazine-1-carboxylate] | 5 | 2 | 3.6
COc1cc2ncnc(-c3cn(CC(F)F)nc3-c3ccccc3)c2nc1NC(=O)c1ccc(C2CC2)nc1 [Example 358, 6-cyclopropyl-N-(4-(1-(2,2-difluoroethyl)-3-phenyl-1H-pyrazol-4-yl)-7-methoxypyrido[3,2-d]pyrimidin-6-yl)nicotinamide] | 1.8 | 1.1 | 1
COc1cc2ncnc(-c3cn(C)nc3-c3ccccc3)c2cc1NC(=O)[C@@H]1CCN1C (single isomer, unassigned) [Example 252, (S)—N-(7-methoxy-4-(1-methyl-3-phenyl-1H-pyrazol-4-yl)quinazolin-6-yl)-1-methylazetidine-2-carboxamide or (R)—N-(7-methoxy-4-(1-methyl-3-phenyl-1H-pyrazol-4-yl)quinazolin-6-yl)-1-methylazetidine-2-carboxamide] |  |  | 3.2
COc1cc2ncnc(-c3cn(C)nc3-c3ccccc3)c2cc1NC(=O)C1CCC1 [Example 347, N-(7-methoxy-4-(1-methyl-3-phenyl-1H-pyrazol-4-yl)quinazolin-6-yl)cyclobutanecarboxamide] | 2.4 | 1.2 | 0.6
CCn1cc(-c2ncnc3cc(OC)c(NC(=O)C4(C(F)(F)F)CC4)nc23)c(-c2ccccc2)n1 [Example 371, N-(4-(1-ethyl-3-phenyl-1H-pyrazol-4-yl)-7-methoxypyrido[3,2-d]pyrimidin-6-yl)-1-(trifluoromethyl)cyclopropane-1-carboxamide] | 1.4 | 0.9 | 0.8
COc1cc2ncnc(-c3cn(C)nc3-c3c(F)cccc3F)c2nc1NC(=O)[C@]12C[C@H]1CN(C)C2 (single isomer, unassigned) [Example 413, (1R,5R)—N-(4-(3-(2,6-difluorophenyl)-1-methyl-1H-pyrazol-4-yl)-7-methoxypyrido[3,2-d]pyrimidin-6-yl)-3-methyl-3-azabicyclo[3.1.0]hexane-1-carboxamide or (1S,5S)—N-(4-(3-(2,6-difluorophenyl)-1-methyl-1H-pyrazol-4-yl)-7-methoxypyrido[3,2-d]pyrimidin-6-yl)-3-methyl-3-azabicyclo[3.1.0]hexane-1-carboxamide] | 10 |  | 23.2
COc1cc2ncnc(-c3cn(C)nc3-c3ccccc3)c2cc1-c1ccnc(N2CCNCC2)c1 [Example 139, 7-methoxy-4-(1-methyl-3-phenyl-1H-pyrazol-4-yl)-6-(2-(piperazin-1-yl)pyridin-4-yl)quinazoline formate] |  |  | 5.1
7-ethoxy-6-(2-methyl-2H-indazol-4-yl)-4-(1-methyl-3-phenyl-1H-pyrazol-4-yl)pyrido[3,2-d]pyrimidine [Example 156] | 3.2 |  | 2.4
COc1cc2ncnc(-c3cn(C)nc3-c3ccccc3)c2cc1NC(=O)[C@@]12C[C@@H]1CN(C)C2 [Example 336, (1S,5S)—N-(7-methoxy-4-(1-methyl-3-phenyl-1H-pyrazol-4-yl)quinazolin-6-yl)-3-methyl-3-azabicyclo[3.1.0]hexane-1-carboxamide] |  |  | 4
COc1cc2ncnc(-c3cn(C)nc3-c3ccccc3)c2cc1NC(=O)C12C3C4C1C1C2C3C41NC(=O)OC(C)(C)C (stereo not drawn) [Example 343, tert-butyl (4-((7-methoxy-4-(1-methyl-3-phenyl-1H-pyrazol-4-yl)quinazolin-6-yl)carbamoyl)cuban-1-yl)carbamate] |  |  | 4.5
COc1cc2ncnc(-c3cn(C)nc3-c3c(F)cccc3F)c2nc1NC(=O)[C@@]12C[C@@H]1CN(C)C2 (single isomer, unassigned) [Example 412, (1S,5S)—N-(4-(3-(2,6-difluorophenyl)-1-methyl-1H-pyrazol-4-yl)-7-methoxypyrido[3,2-d]pyrimidin-6-yl)-3-methyl-3-azabicyclo[3.1.0]hexane-1-carboxamide or (1R,5R)—N-(4-(3-(2,6-difluorophenyl)-1-methyl-1H-pyrazol-4-yl)-7-methoxypyrido[3,2-d]pyrimidin-6-yl)-3-methyl-3-azabicyclo[3.1.0]hexane-1-carboxamide] | 26 |  | 6.7
COc1cc2ncnc(-c3cn(C)nc3-c3ccccc3)c2cc1-c1cc2c[nH]nc2cc1C [Example 147, 7-methoxy-6-(6-methyl-2H-indazol-5-yl)-4-(1-methyl-3-phenyl-1H-pyrazol-4-yl)quinazoline] | 13.7 |  | 
CN1CC[C@@H](Oc2cc3c(-c4cn(C)nc4-c4ccccc4)ncnc3cc2OC2CC2)[C@H](F)C1 [Example 476, 7-cyclopropoxy-6-(((3R,4R)-3-fluoro-1-methylpiperidin-4-yl)oxy)-4-(1-methyl-3-phenyl-1H-pyrazol-4-yl)quinazoline] | 5.4 | 1.3 | 
COc1cc2ncnc(-c3cn(C)nc3-c3ccccc3)c2cc1-c1cc2c[nH]nc2cc1C [Example 146, 7-methoxy-6-(6-methyl-2H-indazol-5-yl)-4-(1-methyl-3-phenyl-1H-pyrazol-4-yl)quinazoline] | 8.2 |  | 
COc1cc2ncnc(-c3cn(C)nc3-c3ccccc3)c2cc1NC(=O)C1CCN1C (stereo not drawn) [Example 251, N-(7-methoxy-4-(1-methyl-3-phenyl-1H-pyrazol-4-yl)quinazolin-6-yl)-1-methylazetidine-2-carboxamide] |  |  | 3.5
COc1cc2ncnc(-c3cn(C)nc3-c3ccccc3)c2cc1-c1ccc2c(=O)[nH]ccc2c1 [Example 144, 6-(7-methoxy-4-(1-methyl-3-phenyl-1H-pyrazol-4-yl)quinazolin-6-yl)isoquinolin-1(2H)-one] |  |  | 8.3
CCC(=O)Nc1cc2c(-c3cn(C)nc3-c3ccccc3)ncnc2cc1-c1ccncn1 [Example 448, N-(4-(1-methyl-3-phenyl-1H-pyrazol-4-yl)-7-(pyrimidin-4-yl)quinazolin-6-yl)propionamide] |  |  | 6.5
Cn1cc(-c2ccc3c(-c4c[nH]nc4-c4cccc(Cl)c4)ncnc3c2)cn1 [Example 440, 4-(3-(3-chlorophenyl)-1H-pyrazol-4-yl)-7-(1-methyl-1H-pyrazol-4-yl)quinazoline] | 0.9 |  | 1.1
COc1cc2ncnc(-c3cn(C)nc3-c3ccccc3)c2cc1-c1ccc2n[nH]cc2c1C [Example 145, 7-methoxy-6-(4-methyl-2H-indazol-5-yl)-4-(1-methyl-3-phenyl-1H-pyrazol-4-yl)quinazoline] |  |  | 5.9
COc1cc2ncnc(-c3cn(C)nc3-c3ccccc3)c2cc1NC(=O)[C@]12C[C@H]1CN(C)C2 [Example 337, (1R,5R)—N-(7-methoxy-4-(1-methyl-3-phenyl-1H-pyrazol-4-yl)quinazolin-6-yl)-3-methyl-3-azabicyclo[3.1.0]hexane-1-carboxamide] |  |  | 5.9
